Measurements from patent US9271978B2 (Zenith Epigenetics Corp., priority 2012, dated 2016).

Key:
Design in all cases: key: Active: Compounds with an IC50 value less than 30 μM were deemed to be active.; Not Active: Compounds with an IC50 value less than 30 μM were deemed to be active
hIL-6 mRNA = assay: Inhibition of hIL-6 mRNA transcription in U937 cells; format: cell-based, human; settings: LPS stimulation, active = IC50 <30 μM
Procedure, shortened: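 Readout is one-step real-time PCR of hIL-6 mRNA, normalized to an internal control and given as fold induction versus control. Cells: PMA (60 ng/mL, 3 days)-differentiated U937 macrophages, compound added 1 h before 1 ug/mL LPS, harvested after 3 h at 37° C.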

[1] = biological target: T1, Brd4 bromodomain 1 (BRD4(1)) (Homo sapiens, UniProt O60885); assay: Inhibition of tetra-acetylated histone H4 binding to Brd4 bromodomain 1 (TR-FRET); settings: tetra-acetylated histone H4 peptide, active = IC50 <30 μM
T1 construct: Illustrative results with the first bromodomain of Brd4; made in house; host or cells: E. coli BL21 (DE3)
Procedure, shortened: (§1)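 IC50 values come from dose-response curves of the 665 nm to 620 nm TR-FRET signal decrease, measured after 2 h at room temperature. Reactions contained 200 nM E. coli-expressed His-tagged bromodomain, 25-50 nM biotinylated tetra-acetylated H4 peptide, Eu-streptavidin plus XL665 anti-His antibody, with 30 mM HEPES pH 7.4, 320 mM KF and 0.2% DMSO.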

[2] = tested on: human AML MV-4-11 (CRL-9591) cells; assay: Inhibition of cell proliferation in MV4-11 cells; format: cell-based; settings: human AML MV-4-11 cells, 72 h; active = IC50 <30 μM
Procedure, shortened: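 IC50 values come from blank-corrected proliferation relative to DMSO controls, read as 490 nm absorbance 3–4 h after CellTiter Aqueous One addition. Before that, cells seeded at 5×10^4/well were exposed for 72 h (37° C, 5% CO2) to triplicate two-fold compound dilutions spanning 30–0.2 μM.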

c-myc = assay: Inhibition of c-myc expression in MV4-11 cells (mRNA, real-time PCR); format: cell-based; settings: Human AML MV4-11 cells, 3 h incubation
Procedure, shortened: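 Duplex RT-qPCR of c-myc against cyclophilin cDNA gave IC50 from a dose–response curve. Input was isolated mRNA from 2.5×10^4 MV4-11 cells after 3 h exposure at 37 °C to compound or 0.1% DMSO vehicle.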

[3] = biological target: T2, second bromodomain of Brd2 (BRD2(2)) (Homo sapiens, UniProt P25440); assay: Inhibition of tetra-acetylated histone H4 binding to Brd2 bromodomain 2 (TR-FRET); settings: tetra-acetylated histone H4 peptide, active = IC50 <30 μM
T2 construct: made in house; host or cells: E. coli BL21 (DE3)
Procedure, shortened: as §1

T2 sequence (P25440 344-453 limits assumed): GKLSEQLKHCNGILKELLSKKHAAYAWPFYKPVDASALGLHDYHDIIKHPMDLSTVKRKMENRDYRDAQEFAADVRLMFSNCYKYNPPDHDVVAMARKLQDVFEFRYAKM

| SMILES | IL-6 activity (IC50 <30 μM) (hIL-6 mRNA) | FRET activity (IC50 <30 μM) BRD4(1) [1] | Cell Proliferation activity (IC50 <30 μM) [2] | c-myc activity (IC50 <30 μM) (c-myc) | FRET activity (IC50 <30 μM) BRD2(2) [3] |
| --- | --- | --- | --- | --- | --- |
| Cc1cccc(Cn2nc(-c3c(C)noc3C)ccc2=O)c1 [Example 30, 6-(3,5-Dimethylisoxazol-4-yl)-2-(3-methylbenzyl)pyridazin-3(2H)-one] | Active | Active | Active | Not Active | Active |
| Cc1noc(C)c1-c1ccc(=O)n(Cc2ccccc2C#N)n1 [Example 24, 2-((3-(3,5-Dimethylisoxazol-4-yl)-6-oxopyridazin-1(6H)-yl)methyl)benzonitrile] | Not Active | Active | Active | Not Active | Active |
| Cc1noc(C)c1-c1cc(C)c(=O)n(Cc2ccccc2)n1 [Example 21, 2-Benzyl-6-(3,5-dimethylisoxazol-4-yl)-4-methylpyridazin-3(2H)-one] | Active | Active | Not Active | Active | Active |
| Cc1ccc(Cn2nc(-c3c(C)noc3C)ccc2=O)cc1 [Example 29, 6-(3,5-Dimethylisoxazol-4-yl)-2-(4-methylbenzyl)pyridazin-3(2H)-one] | Active | Active | Active | Active | Active |
| Cc1ccccc1Cn1nc(-c2c(C)noc2C)ccc1=O [Example 28] | Active | Active | Active | Active | Active |
| Cc1noc(C)c1-c1ccc(=O)n(Cc2ccc(C(F)(F)F)cc2)n1 [Example 91, 6-(3,5-Dimethylisoxazol-4-yl)-2-(4-(trifluoromethyl)benzyl)pyridazin-3(2H)-one] | Not Active | Active | Active | Not Active | Active |
| Cc1noc(C)c1-c1cc(-c2ccc(F)cc2)c(=O)n(Cc2ccccc2)c1 [Example 70, 1-Benzyl-5-(3,5-dimethylisoxazol-4-yl)-3-(4-fluorophenyl)pyridin-2(1H)-one] | Active | Active | Active | Active | Active |
| Cc1noc(C)c1-c1ccc(=O)n(Cc2ccc(Cl)cc2)n1 [Example 25, 2-(4-Chlorobenzyl)-6-(3,5-dimethylisoxazol-4-yl)pyridazin-3(2H)-one] | Active | Active | Active | Active | Active |
| Cc1noc(C)c1-c1ccc(=O)n(CCc2ccccc2)n1 [Example 1, 6-(3,5-Dimethylisoxazol-4-yl)-2-phenethylpyridazin-3(2H)-one] | Not Active | Active | Not Active | Not Active | Active |
| Cc1noc(C)c1-c1ccc(=O)n(Cc2cccc(F)c2)c1 [Example 42, 5-(3,5-Dimethylisoxazol-4-yl)-1-(3-fluorobenzyl)pyridin-2(1H)-one] | Active | Active | Active | Active | Active |
| COc1cccc(Cn2cc(-c3c(C)noc3C)ccc2=O)c1 [Example 78, 5-(3,5-Dimethylisoxazol-4-yl)-1-(3-methoxybenzyl)pyridin-2(1H)-one] | Active | Active | Active | Active | Active |
| Cc1noc(C)c1-c1ccc(=O)n(Cc2ccsc2)n1 [Example 107, 6-(3,5-Dimethylisoxazol-4-yl)-2-(thiophen-3-ylmethyl)pyridazin-3(2H)-one] | Active | Active | Active | Not Active | Active |

Second part, the molecule after the results:

| IL-6 activity (IC50 <30 μM) (hIL-6 mRNA) | FRET activity (IC50 <30 μM) BRD4(1) [1] | Cell Proliferation activity (IC50 <30 μM) [2] | c-myc activity (IC50 <30 μM) (c-myc) | FRET activity (IC50 <30 μM) BRD2(2) [3] | SMILES |
| --- | --- | --- | --- | --- | --- |
| Active | Active | Active | Not Active | Active | Cc1onc(N)c1-c1ccc(=O)n(Cc2ccccc2)c1 [Example 151, 5-(3-Amino-5-methylisoxazol-4-yl)-1-benzylpyridin-2(1H)-one] |
| Not Active | Active | Not Active | Active | Active | Cc1noc(C)c1-c1ccc(=O)n([C@@H](C)c2ccccc2)c1 [Example 133, (S)-5-(3,5-Dimethylisoxazol-4-yl)-1-(1-phenylethyl)pyridin-2(1H)-one] |
| Active | Active | Active | Active | Active | Cc1noc(C)c1-c1ccc(=O)n(Cc2cc(F)c(F)c(F)c2)c1 [Example 142, 5-(3,5-Dimethylisoxazol-4-yl)-1-(3,4,5-trifluorobenzyl)pyridin-2(1H)-one] |
| Active | Active | Active | Active | Active | Cc1noc(C)c1-c1ccc(=O)n(Cc2ccc(C#N)cc2)c1 [Example 137, 4-((5-(3,5-Dimethylisoxazol-4-yl)-2-oxopyridin-1(2H)-yl)methyl)benzonitrile] |
| Active | Active | Active | Active | Active | Cc1noc(C)c1-c1ccc(=O)n(Cc2ccc(Cl)cc2Cl)c1 [Example 136, 1-(2,4-Dichlorobenzyl)-5-(3,5-dimethylisoxazol-4-yl)pyridin-2(1H)-one] |
| Active | Active | Active | Active | Active | Cc1noc(C)c1-c1ccc(=O)n(Cc2ccccc2C(F)(F)F)c1 [Example 123, 5-(3,5-Dimethylisoxazol-4-yl)-1-(2-(trifluoromethyl)benzyl)pyridin-2(1H)-one] |
| Active | Active | Active | Active | Active | Cc1noc(C)c1-c1ccc(=O)n(Cc2ccccc2Cl)c1 [Example 127, 1-(2-Chlorobenzyl)-5-(3,5-dimethylisoxazol-4-yl)pyridin-2(1H)-one] |
